In PubChem BioAssay AID1845197 (Molecular Pharmacology Branch, DTP, NCI, 2023):

Tested on: 349418-098-R tumor spheroid viability
Experiment: Anticancer human tumor 349418-098-R patient-derived lung adenocarcinoma cell line growth inhibition
Settings: spheroids with HUVEC and MSC; for IC50: curve of first compound; for viability, T/C: stronger effect = lower value
Procedure, shortened: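 Complex tumor spheroids combined malignant cells with endothelial cells and mesenchymal stem cells. DNA-damaging drugs and DNA repair inhibitors were tested alone and in combination, at half-log dilutions down from clinical Cmax (top 10 microM if Cmax unknown), 0.25% DMSO final.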
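Also: spheroids exposed to compound for 7 days before measurement.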
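For viability, T/C in this document: percent of vehicle control viability with 100% = DMSO-treated spheroids.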

Work on `Cc1cc(C)c(CNC(=O)c2cc(-c3ccc(CN4CCOCC4)cc3)cc3c2cnn3C2CCCC2)c(=O)[nH]1` + Cn1nnc2c(C(N)=O)ncn2c1=O yielded an IC50 (second compound 1 µM) of 6.56 µM, an IC50 (second compound 3.16 µM) of 7.44 µM and an IC50 (second compound 10 µM) of 7.58 µM. It also gave an IC50 (second compound 31.6 µM) of 6.24 µM, an IC50 (second compound 100 µM) of 6.24 µM and a viability, T/C (second compound 1 µM, first compound 0.0316 µM) of 98%. The viability, T/C (second compound 1 µM, first compound 0.1 µM) was 97.6%, the viability, T/C (second compound 1 µM, first compound 0.316 µM) was 103% and the viability, T/C (second compound 1 µM, first compound 1 µM) was 97.1%. For the same molecule, the viability, T/C (second compound 1 µM, first compound 3.16 µM) was 91.6%, the viability, T/C (second compound 1 µM, first compound 10 µM) was 25.8% and the viability, T/C (second compound 3.16 µM, first compound 0.0316 µM) was 104%. The viability, T/C (second compound 3.16 µM, first compound 0.1 µM) was 102%, the viability, T/C (second compound 3.16 µM, first compound 0.316 µM) was 103% and the viability, T/C (second compound 3.16 µM, first compound 1 µM) was 104%. It also gave a viability, T/C (second compound 3.16 µM, first compound 3.16 µM) of 92.6%, a viability, T/C (second compound 3.16 µM, first compound 10 µM) of 35.2% and a viability, T/C (second compound 10 µM, first compound 0.0316 µM) of 97.4%. The viability, T/C (second compound 10 µM, first compound 0.1 µM) was 106%, the viability, T/C (second compound 10 µM, first compound 0.316 µM) was 98.7% and the viability, T/C (second compound 10 µM, first compound 1 µM) was 102%. For the same molecule, the viability, T/C (second compound 10 µM, first compound 3.16 µM) was 94.3%, the viability, T/C (second compound 10 µM, first compound 10 µM) was 35.8% and the viability, T/C (second compound 31.6 µM, first compound 0.0316 µM) was 99.2%. The viability, T/C (second compound 31.6 µM, first compound 0.1 µM) was 104%, the viability, T/C (second compound 31.6 µM, first compound 0.316 µM) was 99.2% and the viability, T/C (second compound 31.6 µM, first compound 1 µM) was 105%. It also gave a viability, T/C (second compound 31.6 µM, first compound 3.16 µM) of 91.6%, a viability, T/C (second compound 31.6 µM, first compound 10 µM) of 20.5% and a viability, T/C (second compound 100 µM, first compound 0.0316 µM) of 104%. For the same molecule, the viability, T/C (second compound 100 µM, first compound 0.1 µM) was 105%, the viability, T/C (second compound 100 µM, first compound 0.316 µM) was 103% and the viability, T/C (second compound 100 µM, first compound 1 µM) was 97.2%. The viability, T/C (second compound 100 µM, first compound 3.16 µM) was 91.6% and the viability, T/C (second compound 100 µM, first compound 10 µM) was 21.5%.
